Source: patent publication US20170198011A1, “COMPOSITION FOR TREATING SEPSIS OR SEPTIC SHOCK COMPRISING THE PEPTIDE ORIGINATED FROM THE SMAD6” (Medpacto, Inc., priority 2011, published 2017)
Values belong to the molecule of their own block, whether it stands above or below them. Where no end group is shown, it is not given here.

Key:
[1] = target: T1, Pellino-1N domain (Homo sapiens, UniProt Q96FA3); experiment: Co-immunoprecipitation of Smad6 MH2 mutants with HA-tagged Pellino-1N in HEK293 cells; type: binding; settings: truncated mutants of Smad6 MH2 domain
T1 construct: expressed in transfected cells; host or cells: HEK293
T1 sequence (Q96FA3 1-140 limits assumed): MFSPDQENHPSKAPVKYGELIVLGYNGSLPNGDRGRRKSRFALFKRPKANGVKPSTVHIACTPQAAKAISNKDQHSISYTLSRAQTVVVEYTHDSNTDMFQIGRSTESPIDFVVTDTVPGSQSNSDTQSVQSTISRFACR
Text: To examine a minimum region of Smad6 that binds certainly to Pellino-1, which specifically interrupts NF-κB (κB nuclear factor kappa B) signaling, mutants were constructed by consecutively truncating the Smad6 MH2 domain, and analyzed using a co-immunoprecipitation assay.
[…] Plasmids carrying genes for different regions of Smad6 (Myc-Smad6 MH2, Myc-Smad6 346F, Myc-Smad6 371F, Myc-Smad6 385F, Myc-Smad6 464R, Myc-Smad6 441R, Myc-Smad6 410R, Myc-Smad6 385-441, Myc-Smad6 385-427, Myc-Smad6 385-418, Myc-Smad6 385-410, Myc-Smad6 400-441, Myc-Smad6 400-427, Myc-Smad6 400-418, Myc-Smad6 400-410, Myc-Smad6 422-441) were constructed by amplifying a full-length Smad6 cDNA by PCR and subcloning it into the BamHI/XhoI site of the pSC3+MT 6×Myc vector. Myc-Smad6 R429A, Myc-Smad6 P432A, Myc-Smad6 P433G, Myc-Smad6 Y435F, and Myc-Smad6 I437D were created using a QuikChange mutagenesis kit (Stratagene).
A co-immunoprecipitation assay was carried out as follows. […]

[2] = system: TGF-β1 signaling (Smad binding element); experiment: SBE-Luc reporter luciferase assay in CMT-93 cells; type: cell-based; settings: TGF-β1 5 ng/ml 2 hrs
Text: FIG. 2A is a graph showing results of the luciferase assay conducted with CMT-93 cells after transfection with SBE-Luc reporter plasmid plus an empty vector, a plasmid carrying Myc-Smad6 (400-441), or a plasmid carrying full-length Smad6,
FIG. 3D is a graph showing TGF-β-induced luciferase activity in CMT-93 cells transformed with an SBE-Luc reporter plasmid plus an empty vector or a Myc-Smad6 (422-441) plasmid, and
(§1) To examine whether the small region of Smad6 MH2 domain specifically suppresses LPS-induced NF-κB signaling, a 5×NF-κB-Luc reporter plasmid and an SBE (Smad binding element)-Luc reporter plasmid were separately transfected, together with a plasmid expressing a peptide from amino acid 400 to 441 of Smad6, into a CMT-93 epithelial cell line with the aid of Effectene (Qiagen). Following treatment with LPS (10 ng/ml) or TGF-β1 (5 ng/ml) for 2 hrs, the transfected cells were examined for luciferase activity. […] All experiments were independently repeated three times, while a full-length Smad6 plasmid was used as a control.

[3] = system: NF-κB; experiment: 5xNF-κB-Luc reporter luciferase assay in CMT-93 cells; type: cell-based; settings: LPS 10 ng/ml 2 hrs
Text: FIG. 2B is a graph showing results of the luciferase assay conducted with CMT-93 cells after transfection with a 5×NF-κB-Luc reporter plasmid plus an empty vector, a plasmid carrying Myc-Smad6 (400-441), or a plasmid carrying full-length Smad6, and
FIG. 3E is a graph showing TGF-β-induced luciferase activity in CMT-93 cells transformed with a 5×NF-κB-Luc reporter plasmid plus an empty vector or a Myc-Smad6 (422-441) plasmid;
as §1

[4] = system: IκBα; experiment: Immunoblot of LPS-induced IκBα degradation in stably transformed CMT-93 cells; type: cell-based; settings: CMT-93 cells stably expressing the region
Text: To confirm the specific inhibitory activity of the Smad6 β-sheet small region against NF-κB signaling, the epithelial cell line CMT-93, which is susceptible to both TGF-β1 and LPS, was transformed to stably express the Smad6 β-sheet region.

[5] = target: T2, Pellino-1 (Homo sapiens, UniProt Q96FA3); experiment: Co-immunoprecipitation of Smad6 truncated mutants with HA-tagged full length Pellino-1 in HEK293 cells; type: binding
T2 construct: plus an HA-tagged full length Pellino-1 plasmid; expressed in transfected cells; host or cells: HEK293
T2 sequence (Q96FA3 1-418): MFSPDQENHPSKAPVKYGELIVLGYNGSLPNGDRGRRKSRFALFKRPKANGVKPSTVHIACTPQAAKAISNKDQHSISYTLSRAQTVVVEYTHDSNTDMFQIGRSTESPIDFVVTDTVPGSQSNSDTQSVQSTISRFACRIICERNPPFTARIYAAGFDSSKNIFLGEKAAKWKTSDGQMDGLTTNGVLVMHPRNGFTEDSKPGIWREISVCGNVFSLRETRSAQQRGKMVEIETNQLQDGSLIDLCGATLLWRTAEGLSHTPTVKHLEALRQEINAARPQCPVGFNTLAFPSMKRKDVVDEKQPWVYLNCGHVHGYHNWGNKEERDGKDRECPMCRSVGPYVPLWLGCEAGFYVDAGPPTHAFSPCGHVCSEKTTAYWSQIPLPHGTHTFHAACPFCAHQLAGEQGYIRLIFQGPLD
Procedure: (§2) A co-immunoprecipitation assay was carried out as follows. For use as antibodies in co-immunoprecipitation, mouse anti-HA (F-7), mouse anti-c-Myc (9E10), rabbit anti-IκBα (C-21), mouse anti-IRAK1 (F-4), and mouse anti-TRAF6 (D-10) were purchased from Santa Cruz Biotechnology (USA), the antibodies rabbit anti-Pellino-1 and rabbit anti-IRAK4 from Imgenex, the antibodies rabbit anti-Smad6, rabbit anti-MyD88 (D80F5), rabbit anti-IKKα, rabbit anti-phospho-IKKα/β, rabbit anti-RIP1 (D94C12), rabbit anti-IKKi (anti-IKKE; D61F9), rabbit anti-TBK1 (D1B4), rabbit anti-GRK2 from Cell Signaling, and the antibody anti-β-actin from Sigma. Cells were lysed in a lysis buffer (PBS containing 0.5% Triton X-100, 20 mM HEPES (pH 7.4), 150 mM NaCl, 12.5 mM β-glycerol phosphate, 1.5 mM MgCl2, 10 mM NaF, 2 mM DTT, 1 mM Na3O4V, 2 mM EGTA, 1 mM PMSF and protease inhibitor mixture), and harvested by centrifuging 13,000 rpm for 10 min. For immunoprecipitation, the cell lysate were incubated at 4° C. for 12 hrs with protein-A agarose beads and the above-mentioned antibodies. Afterwards, the beads were washed three times with a lysis buffer, and treated with a 2× sample buffer to separate the co-immunoprecipitates therefrom. The co-immunoprecipitates were boiled, followed by SDS-PAGE. […]

[6] = system: IRAK1, TRAF6, MyD88; experiment: Co-immunoprecipitation of Smad6 (422-441) with other TLR4 signaling proteins in HEK293 cells; type: binding; settings: Flag-IRAK1, Flag-TRAF6, Flag-MyD88
Procedure: as §2

interaction with the Pellino-1N domain [1]: interact
Molecule: Myc-Smad6 400-441: plasmid-expressed Myc-tagged peptide region from amino acid 400 to 441 of the Smad6 MH2 domain (VWAYNRGEHPIFVNSPTLDAPGGRALVVRKVPPGYSIKVFDF; also: Myc tag, plasmid-expressed; UniProt O43541 400-441, looked up, fragment)
TGF-β1-mediated reporter activity [2]: did not suppress
NF-κB-mediated reporter activity [3]: selectively suppressed
LPS-induced IκBα degradation detected [4]: not

binding to Pellino-1 [5]: sufficient and minimally required
Molecule: Myc-Smad6 422-441: plasmid-expressed Myc-tagged minimum region, amino acid 422 to 441 of Smad6 (GGRALVVRKVPPGYSIKVFD; also: Myc tag, plasmid-expressed)
TGF-β1-mediated reporter activity [2]: did not suppressed
NF-κB-mediated reporter activity [3]: specifically suppressing
binding to other proteins involved in the TLR4 signaling pathway [6]: not to other proteins involved in the TLR4 signaling pathway

B1: full-length Smad6: full-length Smad6 plasmid used as a control (protein, UniProt O43541 1-496, looked up)
chain: MFRSKRSGLVRRLWRSRVVPDREEGGSGGGGGGDEDGSLGSRAEPAPRAREGGGCGRSEVRPVAPRRPRDAVGQRGAQGAGRRRRAGGPPRPMSEPGAGAGSSLLDVAEPGGPGWLPESDCETVTCCLFSERDAAGAPRDASDPLAGAALEPAGGGRSREARSRLLLLEQELKTVTYSLLKRLKERSLDTLLEAVESRGGVPGGCVLVPRADLRLGGQPAPPQLLLGRLFRWPDLQHAVELKPLCGCHSFAAAADGPTVCCNPYHFSRLCGPESPPPPYSRLSPRDEYKPLDLSDSTLSYTETEATNSLITAPGEFSDASMSPDATKPSHWCSVAYWEHRTRVGRLYAVYDQAVSIFYDLPQGSGFCLGQLNLEQRSESVRRTRSKIGFGILLSKEPDGVWAYNRGEHPIFVNSPTLDAPGGRALVVRKVPPGYSIKVFDFERSGLQHAPEPDAADGPYDPNSVRISFAKGWGPCYSRQFITSCPCWLEILLNNPR
modifications: full-length
notes: full-length Smad6 plasmid used as a control
TGF-β1-mediated reporter activity [2]: suppressed
NF-κB-mediated reporter activity [3]: suppressed
